Data on 19 compounds can be found in ChEMBL document CHEMBL3352293, “Exploring in vitro and in vivo Hsp90 inhibitors activity against human protozoan parasites” (Bioorg Med Chem Lett, 2015).

As usually defined, the pIC50 is the IC50 on a negative log10 scale, so that one unit is a factor of ten.

In one data set the test system is Plasmodium falciparum. Kind of data set: Antiplasmodial activity against Plasmodium falciparum assessed as growth inhibition. It counts as functional, organism-based.
A further data set deals with Giardia intestinalis. Nature of the data set: Antiprotozoal activity against Giardia lamblia assessed as growth inhibition. It counts as functional, organism-based. To be noted: Giardia duodenalis.
For data set [1], the system named is Trypanosoma brucei rhodesiense. Kind of data set: Antitrypanosomal activity against Trypanosoma brucei rhodesiense assessed as growth inhibition. It counts as functional, organism-based.
The next data set relates to L6. Kind of data set: Cytotoxicity against rat L6 cells. The class given is cell-based.
A further data set relates to Trypanosoma cruzi. Nature of the data set: Antitrypanosomal activity against Trypanosoma cruzi assessed as growth inhibition. The class given is functional, organism-based.
The subject of data set [2] is Trypanosoma brucei rhodesiense. Kind of data set: In vivo […] activity against Trypanosoma brucei rhodesiense infected mouse model assessed as clear parasitaemia at 50 mg/kg, ip qd after 4 days. The class given is functional, organism-based. Set-up: dose 50 mg/kg.
Data set [3] has as its system Trypanosoma brucei rhodesiense. Nature of the data set: Antitrypanosomal activity against Trypanosoma brucei rhodesiense infected mouse model assessed as clear parasitaemia at 50 mg/kg, ip qd for 4 days measured on day 9. It counts as functional, organism-based. Set-up: dose 50 mg/kg.
For another data set, the system named is Mus musculus. Kind of data set: Toxicity in mouse infected with Trypanosoma brucei rhodesiense assessed as death at 50 mg/kg, ip qd after 2 administeration. It counts as organism-based. Set-up: dose 50 mg/kg, route intraperitoneal. Particulars: in vivo.
For data set [4], the system named is Trypanosoma brucei rhodesiense. Nature of the data set: Antitrypanosomal activity against Trypanosoma brucei rhodesiense infected mouse model assessed as clear parasitaemia at 50 mg/kg, ip qd for 4 days measured on day 11. On the set-up: dose 50 mg/kg. The class given is functional, organism-based.

Each structure is given as a SMILES string. pIC50: −log10 of the molar value. The source made the active and inactive calls. The calls are words filed in the database; no cut-off is given here.

As for `CCNC(=O)c1noc2c1CN(C(=O)c1cc(C(C)C)c(O)cc1O)CC2`, the negative logarithm of the IC50 (pIC50) with Plasmodium falciparum was 5.34; with Giardia intestinalis it was 5.36; in data set [1] it was 6.01; in the data set on L6, 6.96; with Trypanosoma cruzi it was 6.00.
As for `Cc1ncc([N+](=O)[O-])n1CCO` [METRONIDAZOLE], the pIC50 with Giardia intestinalis is 6.24.
On to `O=C(Cn1ccnc1[N+](=O)[O-])NCc1ccccc1` [BENZNIDAZOLE], for which, in the data set with Trypanosoma cruzi, the pIC50 was 6.39.
With `CCNC(=O)c1noc(-c2cc(C(C)C)c(O)cc2O)c1NC(=O)c1ccc(CN2CCOCC2)cc1`, the pIC50 in the data set with Plasmodium falciparum is 7.60; in the data set on Giardia intestinalis, 5.01; in data set [1], 7.74; with L6, 6.70; in the data set on Trypanosoma cruzi, 5.18. The result in data set [2] and in data set [3] was Active.
In the case of `CCNC(=O)c1noc(-c2cc(C(C)C)c(O)cc2O)c1NC(=O)c1cc(CC)on1`, the pIC50 was 7.46 with Plasmodium falciparum; 5.39 in the data set with Giardia intestinalis; 7.74 in data set [1]; 7.70 in the data set on L6; 6.26 with Trypanosoma cruzi.
On to `CCNC(=O)c1nnn(-c2cc(C(C)C)c(O)cc2O)c1-c1ccc(CNCN2CCOCC2)cc1`, for which the pIC50 is 8.40 in the data set with Plasmodium falciparum; 5.35 with Giardia intestinalis; 8.40 in [1]; 6.58 in the data set on L6; 4.76 in the data set on Trypanosoma cruzi. Besides, the Activity entry in the data set with Mus musculus is “Toxic”.
With `CCNC(=O)c1nnn(-c2cc(C(C)C)c(O)cc2O)c1-c1ccc(CC2CCCC2)cc1`, the pIC50 with Plasmodium falciparum is 8.70; in the data set with Giardia intestinalis, 6.45; in data set [1] it was 9.00; in the data set on L6, 8.10; with Trypanosoma cruzi, 6.14.
Taken in the same sequence, the figures for `CCNC(=O)c1noc(-c2cc(C(C)C)c(O)cc2O)c1NC(=O)[C@H]1CC[C@H](CNS(=O)(=O)c2ccc(F)cc2)CC1` were 6.93, 5.12, 6.90, 6.05 and 5.38.
As for `CCNC(=O)c1noc(-c2cc(C(C)C)c(O)cc2O)c1NC(=O)[C@@H]1CC[C@H](C(=O)OC)C1`, the pIC50 is 7.59 in the data set with Plasmodium falciparum; 5.19 with Giardia intestinalis; 6.12 in data set [1]; 7.40 in the data set with L6; 5.84 in the data set on Trypanosoma cruzi.
Taken in the same sequence, the figures for `CCNC(=O)c1noc(-c2cc(C(C)C)c(O)cc2O)c1NC(=O)c1ccco1` were 7.77, 5.63, 7.92, 7.60 and 5.86.
For the compound `Nc1nc(N)nc(Nc2ccc([As]3SCC(CO)S3)cc2)n1` (centres undefined) [MELARSOPROL], the pIC50 in data set [1] is 8.52.
For the compound `CCNC(=O)c1nnn(-c2cc(C(C)C)c(O)cc2O)c1-c1ccc(Cn2ccnc2)cc1`, the pIC50 is 9.00 in the data set with Plasmodium falciparum; 6.40 in the data set on Giardia intestinalis; 8.52 in data set [1]; 7.96 in the data set with L6; 5.30 in the data set with Trypanosoma cruzi.
For `CCNC(=O)c1noc(-c2cc(C(C)C)c(O)cc2O)c1NC(=O)C1CCC(OC)CC1` (centres undefined), in that order: 7.92, 5.09, 8.40, 7.82 and 5.57.
Consider `COc1cc([C@@H]2c3cc4c(cc3[C@H](O)[C@H]3COC(=O)[C@H]23)OCO4)cc(OC)c1OC` [PODOFILOX], for which, in the data set on L6, the pIC50 is 8.30.
In the case of `CCOC(=O)c1noc2c1CN(C(=O)c1cc(C(C)C)c(O)cc1O)CC2`, the pIC50 in the data set on Plasmodium falciparum is 5.14; in the data set on Giardia intestinalis it was 5.61; in [1], 4.28; in the data set with L6 it was 6.25; with Trypanosoma cruzi, 6.21.
For `CCNC(=O)c1nnn(-c2cc(C(C)C)c(O)cc2O)c1-c1ccc(CN2CCOCC2)cc1`, in that order: 9.00, 7.17, 9.00, 8.70 and 7.57.
For `CCNC(=O)c1noc(-c2cc(C(C)C)c(O)cc2O)c1NC(=O)c1cc(CN2CCOCC2)on1`, in that order: 7.44, 4.89, 8.00, 6.55 and 5.09.
`CCNC(=O)c1noc(-c2cc(C(C)C)c(O)cc2O)c1NC(=O)c1ccc(OC)cc1`: the pIC50 with Plasmodium falciparum was 7.54; in the data set on Giardia intestinalis, 5.50; in data set [1], 7.85; in the data set on L6 it was 8.15; in the data set with Trypanosoma cruzi, 6.36.
Consider `CCNC(=O)c1noc(-c2cc(C(C)C)c(O)cc2O)c1NC(=O)CCN1CCOCC1`, for which the negative logarithm of the IC50 (pIC50) in the data set with Plasmodium falciparum was 7.43; with Giardia intestinalis, 6.01; in data set [1], 7.66; in the data set on L6 it was 6.84; with Trypanosoma cruzi it was 4.78. The outcome in data set [4] and in data set [2] was Active.
